Experimental data: US8501740B2, “Methods of treatment of opioid tolerance, physical dependence, pain and addiction with inhibitors of certain growth factor receptors” (priority 2007, dated 2013)
Entries after “also recorded” stand apart in the source; their conditions may differ.

Key:
rat = assay: Tail-flick latency (TFL) test of morphine analgesia and tolerance; type: in vivo; conditions: for Analgesic effect of the drug itself: administered alone, without morphine; for Development versus behavioral expression of morphine tolerance (tail flick latency): co-administered with morphine for several days, then morphine alone on the final day; for Effect on analgesic effect of morphine given subsequently: drug in 10% cyclodextrin vehicle for 4 days, morphine alone on day 5; for Reversal of established morphine tolerance: morphine given for varying periods, then drug added
Protocol: Analgesic effectiveness is typically studied using the tail-flick test, where a hot light is shined on a rat's tail and the time required for the rat to move (“flick”) its tail recorded (TFL, or tail flick latency).
To determine whether GLEEVEC® (imatinib) blocked the development or expression of tolerance, morphine and GLEEVEC® (imatinib) was co-administered for 4 days, and then on day 5 morphine alone was administered.
To determine whether IRESSA® (gefitinib) blocked the development or expression of tolerance, morphine and IRESSA® (gefitinib) was co-administered for 4 days, and then on day 5 morphine alone was administered.
(§1) A drug can inhibit the expression of narcotic tolerance if it is analgesic itself or if previous drug administration alters subsequent narcotic analgesia. To determine whether either of these possibilities were the case, animals were treated animals with either the cyclodextrin-based vehicle used to solubilize GLEEVEC® (imatinib) (10% CDSBE) or GLEEVEC® (imatinib) in vehicle for 4 days, and then on the fifth day were given morphine alone.
as §1, with “altered” for “alters subsequent”, “IRESSA® (gefitinib)” for “GLEEVEC® (imatinib)”, “CAPTISOL® (sulfobutylether-β-cyclodextrin))” for “CDSBE)”
Another possible explanation for apparent inhibition of opioid tolerance would be that GLEEVEC® (imatinib) or IRESSA® (gefitinib) could alter morphine pharmacokinetics, causing a different time course of analgesia with co-administration.
Next it was desirable to determine if GLEEVEC® (imatinib) could reverse morphine tolerance. NMDA antagonists, which are known to inhibit the development of morphine tolerance, can only partially reverse morphine tolerance, and cannot reverse established tolerance. In addition, NMDA antagonists are highly toxic (many are chemically related to PCP), which also severely limits their clinical use. To determine whether GLEEVEC® (imatinib) could reverse established morphine tolerance, morphine was given for varying periods of time, and then GLEEVEC® (imatinib) was added. […] On day 7, morphine alone was given to all groups.

PDGF receptor = conditions: cited from earlier work
[1] = tested on: animals made physically dependent upon morphine; assay: Morphine physical dependence, naloxone-precipitated withdrawal; type: in vivo; conditions: morphine pellets, drug systemically twice daily
Source text: Animals were pelleted with continuous release morphine pellets, and treated with GLEEVEC® (imatinib) systemically twice daily. Withdrawal was precipitated by injection of naloxone.

[2] = tested on: rats that have undergone sciatic nerve ligation; assay: Sciatic nerve ligation model of neuropathic pain, Von Frey hair testing; type: in vivo; conditions: for Effect upon allodynia / analgesia (Von Frey hairs): sciatic nerve ligation, alone or co-administered as labelled
Source text: (§2) To test the methods of treatment presented herein, we use the sciatic nerve ligation model of Chung et al. (model of neuropathic pain). Chung, J. M., H. K. Kim, and K. Chung, Segmental Spinal Nerve Ligation Model Of Neuropathic Pain, Methods Mol Med, 2004. 99: p. 35-45. Animals undergo this ligation procedure, are allowed to recover, and tested for pain sensitivity using Von Frey hairs and/or pressure testing.
as §2, with “spinal nerve ligation model of neuropathic pain.” for “Spinal Nerve Ligation Model Of Neuropathic Pain,”

PDGFR-beta = PDGFR-beta tyrosine phosphorylation in cell lines (immunoprecipitation, Western blotting with PY-20); type: cell-based
Protocol: Cells were treated with morphine, gabapentin, morphine and gabapentin, or water for 40 minutes. Cells were then washed, lysed, and immunoprecipitation was performed using a PDGFR-beta antibody. Western blotting was then performed using PY-20 antibody, which detects tyrosine phosphorylation. Blots were then stripped and re-probed with PDGFR-beta antibody to control for the amount of PDGFR-beta loaded in each lane.

[3] = tested on: alcohol dependent animals; conditions: cited from earlier work

Compound	Analgesic effect of the drug itself (rat)	Inhibition of tolerance when co-administered with morphine from the beginning (rat)	Development versus behavioral expression of morphine tolerance (tail flick latency) (rat)	Effect on analgesic effect of morphine given subsequently (rat)	Reversal of established morphine tolerance (rat)	Inhibition of morphine tolerance (rat; spinally administered, initial studies)	Inhibition of receptor tyrosine kinase activity of the PDGF receptor (PDGF receptor)	Weight loss in precipitated withdrawal [1]	Withdrawal behaviors in precipitated withdrawal [1]	Effect upon allodynia / analgesia (Von Frey hairs) [2]	Block of morphine-induced PDGFR-beta phosphorylation / PDGFR activation (PDGFR-beta; co-administration with morphine, 40 minutes)	Doses required to block behavioral expression of tolerance, relative to GLEEVEC (imatinib) (rat; rat, in vivo) [fold higher]	Alcohol intake and self-administration ([3]; alcohol dependent animals)	Anxiogenic effects of alcohol withdrawal ([3]; alcohol dependent rats)	Number of doses to achieve peak effect ([2]; sciatic nerve ligation model)	Increase in PDGFR-beta phosphorylation (PDGFR-beta; cells treated for 40 minutes) [%]	Time of peak analgesic effect (rat; time course on 4 consecutive days) [min]
Cc1ccc(NC(=O)c2ccc(CN3CCN(C)CC3)cc2)cc1Nc1nccc(-c2cccnc2)n1 [GLEEVEC® (imatinib), imatinib]	do not exhibit analgesic effects; also recorded: neither GLEEVEC® (imatinib) nor vehicle was analgesic when administered alone; also recorded: no analgesic effect at any time point	inhibited tolerance	inhibits the behavioral expression, not the development of opioid tolerance; also recorded: blocked the behavioral expression of morphine tolerance; also recorded: inhibited the expression of tolerance alone	do not exhibit analgesic effects, or interfere with the analgesic effects of morphine; also recorded: did not alter the analgesic effect of morphine given subsequently on day 5	completely reverses and inhibits the behavioral expression of tolerance; also recorded: completely reversed tolerance	inhibited morphine tolerance	inhibit the receptor tyrosine kinase activity of the PDGF receptor	without affecting weight loss; also recorded: Weight loss was not affected	reduces the behavioral expression of paw shakes and wet dog shakes; also recorded: withdrawal behaviors such as teeth chattering and wet dog shakes were reduced	neither morphine nor GLEEVEC® (imatinib) alone have analgesic properties; also recorded: had no effect upon allodynia	–	–	–	–	–	–	–
COc1cc2ncnc(Nc3ccc(F)c(Cl)c3)c2cc1OCCCN1CCOCC1 [IRESSA® (gefitinib), gefitinib]	do not exhibit analgesic effects; also recorded: neither IRESSA® (gefitinib) nor vehicle was analgesic when administered alone	–	inhibits the development, not the behavioral expression of opioid tolerance; also recorded: inhibited the development of morphine tolerance	do not exhibit analgesic effects, or interfere with the analgesic effects of morphine; also recorded: did not alter the analgesic effect of morphine given on day 5	–	–	–	–	–	neither morphine nor IRESSA® (gefitinib) alone have analgesic properties; also recorded: had no effect upon allodynia	–	–	–	–	–	–	–
NCC1(CC(=O)O)CCCCC1 [gabapentin]	not analgesic itself	blocks tolerance	blocks the behavioral expression of tolerance	–	reverses established tolerance	–	–	–	–	does not cause complete analgesia	blocked by co-administration of gabapentin	10 to 100	reduce alcohol intake and self-administration	reversing anxiogenic effects of alcohol withdrawal	takes several doses to achieve its peak effect	–	–
CN1CC[C@]23c4c5ccc(O)c4O[C@H]2[C@@H](O)C=C[C@H]3[C@H]1C5 [morphine]	–	–	–	–	–	–	–	–	–	neither morphine nor IRESSA® (gefitinib) alone have analgesic properties; also recorded: neither morphine nor GLEEVEC® (imatinib) alone have analgesic properties; also recorded: had no effect upon allodynia	–	–	–	–	–	40	30
